The test system of this test is BDF1 mice, B16 melanoma ip, median survival T/C. In words: NCI In Vivo Anticancer Drug Screen. Data for tumor model B16 Melanoma (intraperitoneal) in B6D2F1 (BDF1) mice. To be noted: endpoint: median survival time, higher = longer survival. Put shortly:
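Read-out: survival or tumor size, given as treated/control ratio. Controls received vehicle only; animals bore transplantable tumors.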

Where [1] appears, read: dose: 25.0 mg/kg/injection, schedule: Q01DX009 (ip), vehicle: Klucel (hydroxypropylcellulose) (HPC).
Where [2] appears, read: dose: 50.0 mg/kg/injection, schedule: Q01DX009 (ip), vehicle: Klucel (hydroxypropylcellulose) (HPC).
Setting [3] is: dose: 100.0 mg/kg/injection, schedule: Q01DX009 (ip), vehicle: Klucel (hydroxypropylcellulose) (HPC).
Where [4] appears, read: dose: 200.0 mg/kg/injection, schedule: Q01DX009 (ip), vehicle: Klucel (hydroxypropylcellulose) (HPC).
The mark [5] stands for this setting: dose: 12.5 mg/kg/injection, schedule: Q01DX009 (ip), vehicle: saline with Tween-80.
[6] abbreviates: dose: 25.0 mg/kg/injection, schedule: Q01DX009 (ip), vehicle: saline with Tween-80.
Setting [7] is: dose: 50.0 mg/kg/injection, schedule: Q01DX009 (ip), vehicle: saline with Tween-80.
[8] abbreviates: dose: 100.0 mg/kg/injection, schedule: Q01DX009 (ip), vehicle: saline with Tween-80.
The mark [9] stands for this setting: dose: 200.0 mg/kg/injection, schedule: Q01DX009 (ip), vehicle: saline with Tween-80.
Setting [10] is: dose: 100.0 mg/kg/injection, schedule: Q04DX003 (ip), vehicle: Klucel (hydroxypropylcellulose) (HPC).
[11] abbreviates: dose: 200.0 mg/kg/injection, schedule: Q04DX003 (ip), vehicle: Klucel (hydroxypropylcellulose) (HPC).
Where [12] appears, read: dose: 12.5 mg/kg/injection, schedule: Q01DX009 (ip), vehicle: saline.
Setting [13] is: dose: 50.0 mg/kg/injection, schedule: Q01DX009 (ip), vehicle: saline.
[14] abbreviates: dose: 400.0 mg/kg/injection, schedule: Q01DX009 (ip), vehicle: Klucel (hydroxypropylcellulose) (HPC).
The mark [15] stands for this setting: dose: 12.5 mg/kg/injection, schedule: Q01DX009 (ip), vehicle: Klucel (hydroxypropylcellulose) (HPC).
The mark [16] stands for this setting: dose: 400.0 mg/kg/injection, schedule: Q04DX003 (ip), vehicle: Klucel (hydroxypropylcellulose) (HPC).
[17] abbreviates: dose: 100.0 mg/kg/injection, schedule: Q01DX009 (ip), vehicle: saline.

“And” between values parts separate entries of the source, which are not always exact repeats. Equal values may be shown once. Toxic doses and inconclusive results are not listed.

For the compound `Cc1cc(C)c(NC(=O)Nc2cccc3ccccc23)c(C)c1`, the T/C reads like this: under setting [1], 91 % of control; under setting [2], 95 % of control.
As for `CCOC(=O)C(Cc1c[nH]c2cc(N)ccc12)(NC(C)=O)C(=O)OCC`, the T/C is, setting by setting: under setting [3], 89 % of control; under setting [4], 87 % of control.
In the case of `O=C(Nc1ccccc1C(=O)O)c1cc([N+](=O)[O-])cc([N+](=O)[O-])c1`, the T/C is 98 % of control under setting [5]; 101 % of control under setting [6]; 111 % of control under setting [7]; 95 % of control under setting [8]; 87 % of control under setting [9].
Regarding `CC1(C)C(C#N)C(=O)N=C(N)C1C(N)=O` (configuration not stated), the T/C was 105 % of control (dose: 12.0 mg/kg/injection, schedule: Q04DX003 (ip), vehicle: Klucel (hydroxypropylcellulose) (HPC)); 107 % of control (dose: 25.0 mg/kg/injection, schedule: Q04DX003 (ip), vehicle: Klucel (hydroxypropylcellulose) (HPC)); 105 % of control (dose: 50.0 mg/kg/injection, schedule: Q04DX003 (ip), vehicle: Klucel (hydroxypropylcellulose) (HPC)); 86 % of control and 100 % of control under setting [10]; 91 % of control under setting [11].
`Cc1cc2nc3ccc(=[N+](C)C)cc-3sc2cc1N`: the T/C was 116 % of control (dose: 3.12 mg/kg/injection, schedule: Q01DX009 (ip), vehicle: saline); 116 % of control under setting [12]; 107 % of control (dose: 25.0 mg/kg/injection, schedule: Q01DX009 (ip), vehicle: saline); 97 % of control under setting [13].
Consider `CCOC(=O)NNC(=O)c1ccccc1N(C)C`, for which the T/C by setting is: under setting [3], 116 % of control; under setting [4], 104 % of control; under setting [14], 92 % of control.
On to `CCCCCCCCCCCC[N+](C)(C)Cc1ccccc1`, for which the T/C (dose: 0.25 mg/kg/injection, schedule: Q01DX009 (ip), vehicle: saline) is 100 % of control and 110 % of control; the T/C (dose: 0.25 mg/kg/injection, schedule: Q04DX003 (ip), vehicle: saline) was 103 % of control; the T/C (dose: 0.5 mg/kg/injection, schedule: Q01DX009 (ip), vehicle: saline) was 97 % of control and 105 % of control and 107 % of control; the T/C (dose: 0.5 mg/kg/injection, schedule: Q04DX003 (ip), vehicle: saline) is 95 % of control and 100 % of control; the T/C (dose: 1.0 mg/kg/injection, schedule: Q01DX009 (ip), vehicle: saline) is 92 % of control and 104 % of control; the T/C (dose: 1.0 mg/kg/injection, schedule: Q04DX003 (ip), vehicle: saline) was 96 % of control. Besides, the T/C is 150 % of control (dose: 2.0 mg/kg/injection, schedule: Q01DX009 (ip), vehicle: saline with Tween-80); 88 % of control and 106 % of control (dose: 2.0 mg/kg/injection, schedule: Q01DX009 (ip), vehicle: saline); 158 % of control (dose: 2.0 mg/kg/injection, schedule: Q04DX003 (ip), vehicle: saline with Tween-80); 88 % of control (dose: 2.0 mg/kg/injection, schedule: Q04DX003 (ip), vehicle: saline); 94 % of control and 100 % of control (dose: 4.0 mg/kg/injection, schedule: Q01DX009 (ip), vehicle: saline); 177 % of control (dose: 4.0 mg/kg/injection, schedule: Q04DX003 (ip), vehicle: saline with Tween-80). The T/C (dose: 4.0 mg/kg/injection, schedule: Q04DX003 (ip), vehicle: saline) is 93 % of control.
For the compound `O=C1c2cc(Br)cc(Br)c2NCCCC1(Br)Br`, the T/C reads like this: (dose: 75.0 mg/kg/injection, schedule: Q04DX003 (ip), vehicle: Klucel (hydroxypropylcellulose) (HPC)) 102 % of control; (dose: 150.0 mg/kg/injection, schedule: Q04DX003 (ip), vehicle: Klucel (hydroxypropylcellulose) (HPC)) 95 % of control; (dose: 300.0 mg/kg/injection, schedule: Q04DX003 (ip), vehicle: Klucel (hydroxypropylcellulose) (HPC)) 96 % of control.
For `CCN(CC)Cc1c(C)cc2oc(=O)c3c(c2c1O)CCCC3`, the T/C is, setting by setting: (dose: 16.0 mg/kg/injection, schedule: Q01DX009 (ip), vehicle: Klucel (hydroxypropylcellulose) (HPC)) 98 % of control; (dose: 32.0 mg/kg/injection, schedule: Q01DX009 (ip), vehicle: Klucel (hydroxypropylcellulose) (HPC)) 100 % of control; (dose: 64.0 mg/kg/injection, schedule: Q01DX009 (ip), vehicle: Klucel (hydroxypropylcellulose) (HPC)) 88 % of control.
Take `CC(=O)n1cc(F)c(=O)[nH]c1=O`: the T/C runs as follows: (dose: 5.3 mg/kg/injection, schedule: Q01DX009 (ip), vehicle: Klucel (hydroxypropylcellulose) (HPC)) 91 % of control; (dose: 8.0 mg/kg/injection, schedule: Q01DX009 (ip), vehicle: Klucel (hydroxypropylcellulose) (HPC)) 91 % of control; (dose: 12.0 mg/kg/injection, schedule: Q01DX009 (ip), vehicle: Klucel (hydroxypropylcellulose) (HPC)) 104 % of control; (dose: 18.0 mg/kg/injection, schedule: Q01DX009 (ip), vehicle: Klucel (hydroxypropylcellulose) (HPC)) 120 % of control; (dose: 27.0 mg/kg/injection, schedule: Q01DX009 (ip), vehicle: Klucel (hydroxypropylcellulose) (HPC)) 114 % of control.
For the compound `O=C(O)C1(C(=O)O)CCCCC1.[NH2-].[NH2-].[Pt+2]`, the T/C runs as follows: (dose: 6.25 mg/kg/injection, schedule: Q01DX009 (ip), vehicle: saline) 159 % of control; under setting [12], 188 % of control.
On to `Nc1nc(O)c(CC(=O)O)s1`, for which the T/C is 88 % of control under setting [15], 91 % of control under setting [1] and 95 % of control under setting [2].
Take `COc1cc2c(c(OC)c1OC)-c1ccc(OC)c(=O)cc1[C@@H](N)CC2`: the T/C by setting is: (dose: 0.31 mg/kg/injection, schedule: Q01DX009 (ip), vehicle: saline) 120 % of control; (dose: 2.5 mg/kg/injection, schedule: Q01DX009 (ip), vehicle: Klucel (hydroxypropylcellulose) (HPC)) 89 % of control; (dose: 5.0 mg/kg/injection, schedule: Q01DX009 (ip), vehicle: Klucel (hydroxypropylcellulose) (HPC)) 110 % of control.
Consider `NC(=O)NC1CCCCCCC1`, for which the T/C by setting is: under setting [8], 100 % of control; under setting [9], 93 % of control; (dose: 400.0 mg/kg/injection, schedule: Q01DX009 (ip), vehicle: saline with Tween-80) 104 % of control.
On to `CC1CCN(c2ccc([N+](=O)[O-])cc2[N+](=O)[O-])CC1`, for which the T/C under setting [2] was 100 % of control, the T/C under setting [3] is 100 % of control and the T/C under setting [4] is 112 % of control.
As to `CCCn1cnc2c(=S)nc[nH]c21`, the T/C is 120 % of control under setting [5], 116 % of control under setting [6] and 106 % of control under setting [7].
For the compound `CNc1ccc(C(=O)O)cc1I`, the T/C reads like this: under setting [3], 105 % of control; under setting [10], 100 % of control; under setting [4], 120 % of control; under setting [11], 104 % of control; under setting [14], 91 % of control; under setting [16], 100 % of control.
`COc1cc(C=Nc2cccc(Br)c2)ccc1N(CCCl)CCCl`: the T/C is 113 % of control (dose: 0.8 mg/kg/injection, schedule: Q01DX009 (ip), vehicle: saline with Tween-80); 113 % of control (dose: 1.56 mg/kg/injection, schedule: Q01DX009 (ip), vehicle: Klucel (hydroxypropylcellulose) (HPC)); 115 % of control (dose: 3.12 mg/kg/injection, schedule: Q01DX009 (ip), vehicle: Klucel (hydroxypropylcellulose) (HPC)); 164 % of control (dose: 6.25 mg/kg/injection, schedule: Q01DX009 (ip), vehicle: saline with Tween-80); 163 % of control under setting [15]; 158 % of control under setting [5].
Take `CCC(=O)Oc1ccc(/C=N/NC(N)=S)nc1`: the T/C is 153 % of control under setting [13] and 121 % of control under setting [17].
Regarding `CCOC(=O)C(Cc1ccc(O)cc1)NP(=O)(OCCCl)OCCCl` (configuration not stated), the T/C is 86 % of control under setting [11] and 91 % of control under setting [16].
`CC(NC(=O)C(N)CCC(=O)O)C(=O)O` (configuration not stated): the T/C was 97 % of control under setting [13]; 90 % of control under setting [17]; 90 % of control (dose: 200.0 mg/kg/injection, schedule: Q01DX009 (ip), vehicle: saline); 94 % of control (dose: 400.0 mg/kg/injection, schedule: Q01DX009 (ip), vehicle: saline).

Values taken from PubChem BioAssay AID192 (DTP/NCI, 2004).
